The OPERA property sets (Mansouri et al. 2018)
Values after ≈ are worked out from the molar mass of the structure shown.

Conditions: not given

logP | SMILES
1.52 | COC(=O)CS(=O)(=O)c1ccc(Br)cc1
2.54 | COC(=O)C1(S(=O)(=O)c2ccc(C)cc2)CCCCC1
2.88 | Cc1ccc(S(=O)(=O)C2(C(=O)OC(C)C)CCCC2)cc1
1.31 | COC(=O)CS(=O)(=O)c1ccc(Cl)cc1
2.04 | CC(C)OC(=O)CS(=O)(=O)c1ccc(Cl)cc1
0.93 | COC(=O)CS(=O)(=O)c1ccccc1

Same assay, conditions: 25 °C

solubility | SMILES
417 µM (≈ 119 µg/mL) | COC(=O)C1(S(=O)(=O)c2ccc([N+](=O)[O-])cc2)CC1
1320 µM (≈ 335 µg/mL) | COC(=O)C1(S(=O)(=O)c2ccc(C)cc2)CC1
1000 µM (≈ 289 µg/mL) | COC(=O)C1(S(=O)(=O)c2ccc(Cl)cc2)CCC1
54.9 µM (≈ 17.2 µg/mL) | CC(C)OC(=O)C1(S(=O)(=O)c2ccc([N+](=O)[O-])cc2)CC1
2820 µM (≈ 756 µg/mL) | COC(=O)C1(S(=O)(=O)c2ccccc2)CCCC1
75.8 µM (≈ 24 µg/mL) | CC(C)(C)OC(=O)C1(S(=O)(=O)c2ccc(Cl)cc2)CC1
976 µM (≈ 262 µg/mL) | CCOC(=O)C1(S(=O)(=O)c2ccc(C)cc2)CC1
999 µM (≈ 254 µg/mL) | COC(=O)C1(S(=O)(=O)c2ccccc2)CCC1
1100 µM (≈ 310 µg/mL) | CCOC(=O)C1(S(=O)(=O)c2ccc(C)cc2)CCC1
1410 µM (≈ 399 µg/mL) | COC(=O)C1(S(=O)(=O)c2ccccc2)CCCCC1
5490 µM (≈ 1320 µg/mL) | COC(=O)C1(S(=O)(=O)c2ccccc2)CC1
588 µM (≈ 166 µg/mL) | Cc1ccc(S(=O)(=O)C2(C(=O)OC(C)C)CC2)cc1
33.2 µM (≈ 12 µg/mL) | COC(=O)C1(S(=O)(=O)c2ccc(Br)cc2)CCCCC1
174 µM (≈ 56.9 µg/mL) | CC(C)OC(=O)C1(S(=O)(=O)c2ccc([N+](=O)[O-])cc2)CCC1
97.6 µM (≈ 33.9 µg/mL) | COC(=O)C1(S(=O)(=O)c2ccc(Br)cc2)CCCC1
22.4 µM (≈ 7.41 µg/mL) | CC(C)OC(=O)C1(S(=O)(=O)c2ccc(Cl)cc2)CCCC1
288 µM (≈ 87.3 µg/mL) | CC(C)OC(=O)C1(S(=O)(=O)c2ccc(Cl)cc2)CC1
8.5 µM (≈ 3.14 µg/mL) | CC(C)OC(=O)C1(S(=O)(=O)c2ccc([N+](=O)[O-])cc2)CCCCCC1
282 µM (≈ 93.9 µg/mL) | COC(=O)C1(S(=O)(=O)c2ccc(Br)cc2)CCC1
214 µM (≈ 68.2 µg/mL) | COC(=O)C1(S(=O)(=O)c2ccc(Br)cc2)CC1
491 µM (≈ 135 µg/mL) | COC(=O)C1(S(=O)(=O)c2ccc(Cl)cc2)CC1
